From patent US11167015B2, “Arginine and its use as a T cell modulator” (INSTITUTE FOR RESEARCH IN BIOMEDICINE, priority 2016, dated 2021) come the findings set out here.

The assay relates to human naïve CD4+ T cells. Nature of the assay: proteome analysis of T cells activated in L-arginine-supplemented medium. Format: cell-based. As to the method: Samples were processed as described by (Hornburg et al., 2014). In brief, cell pellets were washed with PBS and lysed in 4% SDS, 10 mM HEPES (pH 8), 10 mM DTT. Cell pellets were heat-treated at 95° C. for 10 min and sonicated at 4° C. for 15 min (level 5, Bioruptor, Diagenode). Alkylation was performed in the dark for 30 min by adding 55 mM iodoacetamide (IAA). Proteins were precipitated overnight with acetone at −20° C. and resuspended the next day in 8 M Urea, 10 mM Hepes (pH 8). A two-step proteolytic digestion was performed. First, samples were digested at room temperature (RT) with LysC (1:50, w/w) for 3 h. Then, they were diluted 1:5 with 50 mM ammoniumbicarbonate (pH 8) and digested with trypsin (1:50, w/w) at RT overnight. The resulting peptide mixtures were acidified and loaded on C18 StageTips (Rappsilber et al., 2007). […]
Peptides were separated on an EASY-nLC 1000 HPLC system (Thermo Fisher Scientific, Odense, Denmark) coupled online to a Q Exactive mass spectrometer via a nanoelectrospray source (Thermo Fisher Scientific) (Michalski et al., 2011). […] Operational parameters were real-time monitored by the SprayQC software (Scheltema and Mann, 2012). […]
MaxQuant software (version 1.3.10.18) was used to analyze MS raw files (Cox and Mann, 2008). […] Nonlinear retention time alignment of all measured samples was performed in MaxQuant. […]

Take `N=C(N)NCCC[C@H](N)C(=O)O` [L-arginine]: for the setting “L-Arg-medium vs normal medium”, the Sirtuin-1 copy numbers entry is recorded as “up-regulates”. In addition, the “number of proteins with significantly different expression (out of 7,243)” value (L-arginine-supplemented medium) is reported as 202.
